Source: publication PMC11167047 (Cell Death Discovery, 2024)

Tests used:
Assay in all cases: kinome screen (33PanQinase)
Format in all cases: biochemical
FGFR2 = molecular target: T1, FGFR2 (Homo sapiens, UniProt P21802)
T1 construct: purchased Reaction Biology Europe GmbH (formerly ProQinase)
Procedure: (§1) The Kinome Screening was performed by Reaction Biology Europe GmbH (http://reactionbiology.com; Freiburg i. Br., Germany).

RAF1 YDYD = molecular target: T2, RAF1 YDYD (Homo sapiens, UniProt P04049, Y340D/Y341D)
T2 construct: purchased Reaction Biology Europe GmbH (formerly ProQinase)
T2 sequence (P04049 306-648 Y340D/Y341D limits assumed): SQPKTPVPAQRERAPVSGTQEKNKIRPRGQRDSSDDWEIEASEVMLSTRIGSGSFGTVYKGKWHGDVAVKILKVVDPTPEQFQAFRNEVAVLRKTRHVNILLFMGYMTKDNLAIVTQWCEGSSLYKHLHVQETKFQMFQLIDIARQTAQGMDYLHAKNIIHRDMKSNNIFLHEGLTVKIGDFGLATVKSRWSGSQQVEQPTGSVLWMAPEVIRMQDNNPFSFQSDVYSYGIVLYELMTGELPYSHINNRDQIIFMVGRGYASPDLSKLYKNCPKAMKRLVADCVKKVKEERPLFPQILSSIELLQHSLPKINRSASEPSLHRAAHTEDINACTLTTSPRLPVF
Procedure: as §1

PRKG1 = molecular target: T3, PRKG1 (Homo sapiens, UniProt Q13976)
T3 construct: purchased Reaction Biology Europe GmbH (formerly ProQinase)
T3 sequence (Q13976 1-671): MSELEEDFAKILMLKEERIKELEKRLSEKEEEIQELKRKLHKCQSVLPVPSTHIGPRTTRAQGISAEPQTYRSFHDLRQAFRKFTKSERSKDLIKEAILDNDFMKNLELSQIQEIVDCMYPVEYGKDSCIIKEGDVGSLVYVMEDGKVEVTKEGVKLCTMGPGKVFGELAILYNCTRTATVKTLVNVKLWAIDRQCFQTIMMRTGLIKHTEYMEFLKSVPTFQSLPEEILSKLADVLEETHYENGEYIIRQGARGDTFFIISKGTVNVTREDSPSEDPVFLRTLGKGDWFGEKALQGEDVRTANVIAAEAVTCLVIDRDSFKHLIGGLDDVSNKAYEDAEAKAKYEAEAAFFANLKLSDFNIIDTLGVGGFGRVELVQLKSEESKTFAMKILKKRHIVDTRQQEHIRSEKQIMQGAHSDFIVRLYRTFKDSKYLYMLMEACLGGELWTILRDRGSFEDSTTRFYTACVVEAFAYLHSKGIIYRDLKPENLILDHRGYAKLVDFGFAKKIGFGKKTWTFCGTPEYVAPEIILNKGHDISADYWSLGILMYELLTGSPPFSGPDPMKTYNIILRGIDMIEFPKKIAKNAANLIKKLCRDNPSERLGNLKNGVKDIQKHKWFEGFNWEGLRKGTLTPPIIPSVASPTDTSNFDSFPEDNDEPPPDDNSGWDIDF
Procedure: as §1

EPHA2 = molecular target: T4, EPHA2 (Homo sapiens, UniProt P29317)
T4 construct: purchased Reaction Biology Europe GmbH (formerly ProQinase)
T4 sequence (P29317 24-976): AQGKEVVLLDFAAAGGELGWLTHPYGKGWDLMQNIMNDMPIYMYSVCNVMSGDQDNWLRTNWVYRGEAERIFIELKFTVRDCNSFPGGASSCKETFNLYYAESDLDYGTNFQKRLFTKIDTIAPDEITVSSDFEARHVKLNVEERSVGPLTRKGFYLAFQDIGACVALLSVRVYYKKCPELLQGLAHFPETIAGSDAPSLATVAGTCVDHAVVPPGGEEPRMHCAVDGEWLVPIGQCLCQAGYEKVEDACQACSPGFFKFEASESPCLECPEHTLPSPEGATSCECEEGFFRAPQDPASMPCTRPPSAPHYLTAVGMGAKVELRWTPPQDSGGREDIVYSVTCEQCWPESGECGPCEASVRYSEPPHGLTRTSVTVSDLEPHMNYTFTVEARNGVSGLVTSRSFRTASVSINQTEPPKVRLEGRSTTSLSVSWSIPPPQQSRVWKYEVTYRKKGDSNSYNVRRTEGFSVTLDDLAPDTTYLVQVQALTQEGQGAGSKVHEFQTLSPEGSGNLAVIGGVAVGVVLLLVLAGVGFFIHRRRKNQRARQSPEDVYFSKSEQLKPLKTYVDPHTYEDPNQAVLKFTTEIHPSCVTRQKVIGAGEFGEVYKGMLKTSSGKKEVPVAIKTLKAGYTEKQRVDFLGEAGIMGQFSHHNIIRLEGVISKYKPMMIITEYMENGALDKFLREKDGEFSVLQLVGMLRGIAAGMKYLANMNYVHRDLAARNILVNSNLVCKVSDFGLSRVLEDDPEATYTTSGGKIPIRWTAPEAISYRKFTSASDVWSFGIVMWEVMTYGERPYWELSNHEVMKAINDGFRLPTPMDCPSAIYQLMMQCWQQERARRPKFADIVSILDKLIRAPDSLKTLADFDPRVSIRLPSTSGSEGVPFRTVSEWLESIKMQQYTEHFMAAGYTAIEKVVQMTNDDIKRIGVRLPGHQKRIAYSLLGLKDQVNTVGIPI
Procedure: as §1

NEK11 = molecular target: T5, NEK11 (Homo sapiens, UniProt Q8NG66)
T5 construct: purchased Reaction Biology Europe GmbH (formerly ProQinase)
T5 sequence (Q8NG66 1-645): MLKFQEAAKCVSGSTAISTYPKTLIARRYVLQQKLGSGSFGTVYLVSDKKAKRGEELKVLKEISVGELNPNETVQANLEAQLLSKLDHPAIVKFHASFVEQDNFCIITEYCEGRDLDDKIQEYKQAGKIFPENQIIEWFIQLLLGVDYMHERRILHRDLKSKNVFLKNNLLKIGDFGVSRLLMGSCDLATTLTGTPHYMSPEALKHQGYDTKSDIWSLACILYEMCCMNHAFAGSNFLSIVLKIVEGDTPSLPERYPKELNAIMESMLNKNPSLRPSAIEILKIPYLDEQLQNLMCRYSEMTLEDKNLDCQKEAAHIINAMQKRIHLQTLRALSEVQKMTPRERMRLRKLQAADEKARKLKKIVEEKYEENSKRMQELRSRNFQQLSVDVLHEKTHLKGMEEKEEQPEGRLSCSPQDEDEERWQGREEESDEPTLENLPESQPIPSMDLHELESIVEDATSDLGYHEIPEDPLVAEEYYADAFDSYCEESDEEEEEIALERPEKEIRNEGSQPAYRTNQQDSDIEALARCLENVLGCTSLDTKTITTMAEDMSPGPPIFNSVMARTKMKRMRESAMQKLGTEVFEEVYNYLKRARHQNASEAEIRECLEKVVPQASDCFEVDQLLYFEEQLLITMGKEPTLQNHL
Procedure: as §1

PKCβ1 = molecular target: T6, PKCβ1 (Homo sapiens, UniProt P05771)
T6 construct: purchased Reaction Biology Europe GmbH (formerly ProQinase)
Procedure: as §1

FGR = molecular target: T7, FGR (Homo sapiens, UniProt P09769)
T7 construct: purchased Reaction Biology Europe GmbH (formerly ProQinase)
T7 sequence (P09769 whole entry): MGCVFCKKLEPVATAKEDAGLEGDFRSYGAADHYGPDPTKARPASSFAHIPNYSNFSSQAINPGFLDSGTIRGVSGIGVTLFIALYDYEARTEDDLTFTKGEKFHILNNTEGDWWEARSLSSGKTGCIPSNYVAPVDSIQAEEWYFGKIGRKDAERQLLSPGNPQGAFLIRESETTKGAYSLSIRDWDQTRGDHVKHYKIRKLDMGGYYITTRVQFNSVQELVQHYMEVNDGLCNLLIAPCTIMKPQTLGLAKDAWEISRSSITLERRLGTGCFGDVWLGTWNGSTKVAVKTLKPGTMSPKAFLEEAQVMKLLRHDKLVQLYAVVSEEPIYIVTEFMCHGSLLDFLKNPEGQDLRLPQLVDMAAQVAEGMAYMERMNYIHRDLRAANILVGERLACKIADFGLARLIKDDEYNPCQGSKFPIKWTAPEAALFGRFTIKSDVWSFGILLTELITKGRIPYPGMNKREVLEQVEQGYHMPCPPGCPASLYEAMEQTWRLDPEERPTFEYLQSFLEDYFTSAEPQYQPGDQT
Procedure: as §1

MASTL = molecular target: T8, MASTL (Homo sapiens, UniProt Q96GX5)
T8 construct: purchased Reaction Biology Europe GmbH (formerly ProQinase)
T8 sequence (Q96GX5 1-879): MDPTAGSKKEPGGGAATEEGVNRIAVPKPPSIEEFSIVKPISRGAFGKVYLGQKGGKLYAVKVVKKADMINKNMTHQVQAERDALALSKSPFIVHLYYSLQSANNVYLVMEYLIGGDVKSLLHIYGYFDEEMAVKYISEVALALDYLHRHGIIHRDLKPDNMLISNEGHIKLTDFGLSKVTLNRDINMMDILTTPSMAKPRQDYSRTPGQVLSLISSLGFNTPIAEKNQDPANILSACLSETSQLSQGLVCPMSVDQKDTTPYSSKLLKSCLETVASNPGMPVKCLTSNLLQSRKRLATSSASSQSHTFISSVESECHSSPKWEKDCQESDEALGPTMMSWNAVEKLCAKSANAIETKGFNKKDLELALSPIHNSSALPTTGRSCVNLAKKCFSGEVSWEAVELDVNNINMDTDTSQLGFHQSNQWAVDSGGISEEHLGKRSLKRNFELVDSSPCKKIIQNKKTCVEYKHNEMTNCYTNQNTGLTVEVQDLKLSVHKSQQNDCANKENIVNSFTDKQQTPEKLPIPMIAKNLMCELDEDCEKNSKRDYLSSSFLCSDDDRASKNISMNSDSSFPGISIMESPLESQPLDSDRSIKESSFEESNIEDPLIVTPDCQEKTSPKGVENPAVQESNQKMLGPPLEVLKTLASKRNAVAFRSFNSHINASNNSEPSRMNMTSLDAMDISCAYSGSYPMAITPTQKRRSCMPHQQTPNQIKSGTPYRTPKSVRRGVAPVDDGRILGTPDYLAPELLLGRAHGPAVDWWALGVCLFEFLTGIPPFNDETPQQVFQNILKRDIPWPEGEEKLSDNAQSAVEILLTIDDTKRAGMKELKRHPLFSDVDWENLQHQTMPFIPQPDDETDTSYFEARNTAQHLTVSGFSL
Procedure: as §1

TYK2 = molecular target: T9, TYK2 (Homo sapiens, UniProt P29597)
T9 construct: purchased Reaction Biology Europe GmbH (formerly ProQinase)
T9 sequence (P29597 whole entry): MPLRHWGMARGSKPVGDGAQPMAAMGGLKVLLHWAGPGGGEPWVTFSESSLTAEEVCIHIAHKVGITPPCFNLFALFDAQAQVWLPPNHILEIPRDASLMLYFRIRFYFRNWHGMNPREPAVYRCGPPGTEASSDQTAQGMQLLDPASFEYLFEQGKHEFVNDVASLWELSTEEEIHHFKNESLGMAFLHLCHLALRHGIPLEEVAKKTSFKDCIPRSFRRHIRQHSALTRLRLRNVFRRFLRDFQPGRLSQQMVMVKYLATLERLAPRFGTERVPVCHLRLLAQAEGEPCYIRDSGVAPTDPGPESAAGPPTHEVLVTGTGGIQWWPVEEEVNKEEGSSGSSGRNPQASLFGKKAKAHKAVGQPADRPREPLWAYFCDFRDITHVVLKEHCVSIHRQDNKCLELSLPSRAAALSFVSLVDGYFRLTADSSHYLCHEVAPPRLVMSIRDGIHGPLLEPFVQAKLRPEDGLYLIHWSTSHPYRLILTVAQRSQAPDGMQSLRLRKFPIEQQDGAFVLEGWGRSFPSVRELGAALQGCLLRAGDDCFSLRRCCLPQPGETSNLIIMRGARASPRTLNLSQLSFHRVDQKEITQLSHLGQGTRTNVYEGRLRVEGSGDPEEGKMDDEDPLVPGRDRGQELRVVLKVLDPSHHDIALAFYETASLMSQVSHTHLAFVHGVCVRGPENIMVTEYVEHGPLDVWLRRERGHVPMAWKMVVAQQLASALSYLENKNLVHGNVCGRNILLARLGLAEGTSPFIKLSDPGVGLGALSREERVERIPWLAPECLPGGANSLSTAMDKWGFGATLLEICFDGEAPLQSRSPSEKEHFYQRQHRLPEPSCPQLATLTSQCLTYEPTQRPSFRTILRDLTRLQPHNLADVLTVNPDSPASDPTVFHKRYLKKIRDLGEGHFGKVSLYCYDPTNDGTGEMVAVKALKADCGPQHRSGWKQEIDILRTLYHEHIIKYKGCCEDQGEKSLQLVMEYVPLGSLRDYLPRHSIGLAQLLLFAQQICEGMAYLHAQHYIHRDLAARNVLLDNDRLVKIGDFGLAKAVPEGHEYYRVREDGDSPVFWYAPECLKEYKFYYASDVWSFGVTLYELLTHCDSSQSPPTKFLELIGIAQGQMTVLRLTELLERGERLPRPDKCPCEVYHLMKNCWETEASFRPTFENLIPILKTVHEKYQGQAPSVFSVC
Procedure: as §1

BTK = molecular target: T10, BTK (Homo sapiens, UniProt Q06187)
T10 construct: purchased Reaction Biology Europe GmbH (formerly ProQinase)
T10 sequence (Q06187 whole entry): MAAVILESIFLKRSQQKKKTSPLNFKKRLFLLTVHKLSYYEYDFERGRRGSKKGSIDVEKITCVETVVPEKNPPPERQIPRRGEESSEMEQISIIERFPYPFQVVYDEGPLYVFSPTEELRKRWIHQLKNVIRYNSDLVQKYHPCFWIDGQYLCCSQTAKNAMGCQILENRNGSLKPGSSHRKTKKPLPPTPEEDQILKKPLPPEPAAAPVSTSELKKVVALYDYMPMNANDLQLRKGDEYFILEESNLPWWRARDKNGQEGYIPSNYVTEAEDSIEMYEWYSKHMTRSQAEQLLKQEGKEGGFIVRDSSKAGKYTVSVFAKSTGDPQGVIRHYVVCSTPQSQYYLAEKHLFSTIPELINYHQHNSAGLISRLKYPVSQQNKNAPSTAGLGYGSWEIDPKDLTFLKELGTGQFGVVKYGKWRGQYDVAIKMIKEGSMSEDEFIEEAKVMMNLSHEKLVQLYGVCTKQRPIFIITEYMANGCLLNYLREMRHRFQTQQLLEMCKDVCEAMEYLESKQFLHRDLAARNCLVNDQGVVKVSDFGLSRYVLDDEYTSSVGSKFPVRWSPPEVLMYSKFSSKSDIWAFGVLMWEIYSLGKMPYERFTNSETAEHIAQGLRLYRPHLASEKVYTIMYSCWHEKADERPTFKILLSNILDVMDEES
Procedure: as §1

T1 sequence (P21802 22-821): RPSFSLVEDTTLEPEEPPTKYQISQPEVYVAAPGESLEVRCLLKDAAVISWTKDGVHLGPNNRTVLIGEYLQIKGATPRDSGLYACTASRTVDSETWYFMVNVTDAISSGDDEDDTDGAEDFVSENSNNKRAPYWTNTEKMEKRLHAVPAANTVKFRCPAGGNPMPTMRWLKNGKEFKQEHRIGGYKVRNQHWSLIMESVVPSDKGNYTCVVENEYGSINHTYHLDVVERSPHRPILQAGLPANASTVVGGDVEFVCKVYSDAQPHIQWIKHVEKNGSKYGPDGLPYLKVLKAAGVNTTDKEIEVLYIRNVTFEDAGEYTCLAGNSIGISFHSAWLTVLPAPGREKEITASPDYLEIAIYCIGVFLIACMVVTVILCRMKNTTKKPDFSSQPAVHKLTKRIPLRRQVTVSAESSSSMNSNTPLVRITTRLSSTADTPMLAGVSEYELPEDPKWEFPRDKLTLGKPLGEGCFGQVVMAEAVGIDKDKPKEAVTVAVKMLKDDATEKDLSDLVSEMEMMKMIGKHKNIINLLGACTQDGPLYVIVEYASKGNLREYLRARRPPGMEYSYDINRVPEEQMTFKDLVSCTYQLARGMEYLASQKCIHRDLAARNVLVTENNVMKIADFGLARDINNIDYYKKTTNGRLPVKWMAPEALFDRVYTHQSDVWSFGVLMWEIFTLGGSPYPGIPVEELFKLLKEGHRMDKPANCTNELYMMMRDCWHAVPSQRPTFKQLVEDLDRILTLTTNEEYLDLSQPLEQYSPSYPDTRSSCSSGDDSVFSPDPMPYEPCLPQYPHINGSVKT

Row | SMILES | residual kinase activity (FGFR2; 0.3 µM) | residual kinase activity (RAF1 YDYD; 0.3 µM) | residual kinase activity (PRKG1; 0.3 µM) | residual kinase activity (EPHA2; 0.3 µM) | residual kinase activity (NEK11; 0.3 µM) | residual kinase activity (PKCβ1; 0.3 µM) | residual kinase activity (FGR; 0.3 µM) | residual kinase activity (MASTL; 0.3 µM) | residual kinase activity (TYK2; 0.3 µM) | residual kinase activity (BTK; 0.3 µM) | also measured
1 | COc1ccnc2[nH]cc(-c3cc(N)nc(N)c3)c12 [meriolin 16] | 85 % of control | 96 % of control | 30 % of control | 101 % of control | 87 % of control | 50 % of control | 105 % of control | 56 % of control | 68 % of control | 96 % of control | residual kinase activity (FGFR2; 0.03 µM): 94 % of control; residual kinase activity (RAF1 YDYD; 0.03 µM): 77 % of control; residual kinase activity (PRKG1; 0.03 µM): 75 % of control; residual kinase activity (EPHA2; 0.03 µM): 109 % of control; residual kinase activity (NEK11; 0.03 µM): 97 % of control; residual kinase activity (PKCβ1; 0.03 µM): 103 % of control; residual kinase activity (FGR; 0.03 µM): 111 % of control; residual kinase activity (MASTL; 0.03 µM): 87 % of control; residual kinase activity (TYK2; 0.03 µM): 105 % of control; residual kinase activity (BTK; 0.03 µM): 114 % of control
2 | c1ccc(CNc2cc(-c3c[nH]c4ncccc34)ccn2)cc1 [meriolin 36] | 52 % of control | 67 % of control | 6 % of control | 101 % of control | 105 % of control | 53 % of control | 40 % of control | 64 % of control | 6 % of control | 103 % of control | residual kinase activity (FGFR2; 3 µM): 9 % of control; residual kinase activity (RAF1 YDYD; 3 µM): 67 % of control; residual kinase activity (PRKG1; 3 µM): 1 % of control; residual kinase activity (EPHA2; 3 µM): 72 % of control; residual kinase activity (NEK11; 3 µM): 85 % of control; residual kinase activity (PKCβ1; 3 µM): 9 % of control; residual kinase activity (FGR; 3 µM): 6 % of control; residual kinase activity (MASTL; 3 µM): 26 % of control; residual kinase activity (TYK2; 3 µM): 1 % of control; residual kinase activity (BTK; 3 µM): 77 % of control
